Where two headings read alike, the source gives them in different places.
Key:
[1] = Adverse reactions in retrospective studies of patients with NAGS deficiency, PA, MMA or IVA; format: in vivo, human; settings: Total Population = 80
Text: Sixty-one percent (61%) of patients were male and 39% of patients were female. In patients with PA, MMA or IVA (48% male and 52% female patients), 57% of decompensation episodes occurred during the first 4 weeks after birth (neonates), and 43% of decompensation episodes occurred beyond the neonatal period. The median age at the start of the decompensation episode was 12 days.

[2] = CARIV-A-001 Part A: single ascending IV doses over 20 minutes in healthy subjects; format: in vivo, human; settings: for CL renal: plasma and urine
Method: This study was conducted in healthy male or female volunteers, at a single site to assess the safety and PK profile of an IV formulation of Carbaglu and to determine the absolute bioavailability of the current marketed oral formulation of Carbaglu.
The levels of CGA in plasma and urine were analysed using a fully validated method, which included LC-MS/MS analysis. The PK data were analysed based on a non-compartmental model. A model-based approach was implemented for the characterization of the PK properties of the IV formulation in order to estimate the level of PK exposure after different doses administered with different duration of infusion. […] The PK parameters were determined using SAS (version 9.3), and modelling of the PK data was performed using NONMEM (version 7.3, ICON Solutions). PART A: Mono-Centre, Randomized, Successive Groups, Double-Blind, Placebo-Controlled Study in Healthy Male and Female Subjects
Each cohort included a minimum of 3 and maximum of 5 subjects of each of the two genders.
Three loading doses of CGA over 20 minutes were tested by IV administration, 3.5 mg/kg, 5.0 mg/kg and 7.5 mg/kg. For each of these three doses, 6 subjects were administered CGA and 2 received the placebo.
Plasma concentrations of CGA were measured at 18 timepoints, including a sample preceding the start of the administration, and then between 10 minutes and 48 hours following the initiation of the IV infusion.
The PK analysis of Carbaglu was conducted by using standard non-compartmental approach.

## NC(=O)N[C@@H](CCC(=O)O)C(=O)O [carglumic acid, N-carbamoyl-L-glutamic acid]
[1]
  Adverse reaction Abdominal pain, Number of Patients (N) (%): 4 (5%) N (%)
  Adverse reaction Anemia, Number of Patients (N) (%): 4 (5%) N (%)
  Adverse reaction Anorexia, Number of Patients (N) (%): 2 (3%) N (%)
  Adverse reaction Diarrhea, Number of Patients (N) (%): 5 (5%) N (%)
  Adverse reaction Dysgeusia, Number of Patients (N) (%): 2 (3%) N (%)
  Adverse reaction Ear infection, Number of Patients (N) (%): 3 (4%) N (%)
  Adverse reaction Headache, Number of Patients (N) (%): 3 (4%) N (%)
  Adverse reaction Hemoglobin decreased, Number of Patients (N) (%): 2 (3%) N (%)
  Adverse reaction Hyperhidrosis, Number of Patients (N) (%): 2 (3%) N (%)
  Adverse reaction Infection, Number of Patients (N) (%): 3 (4%) N (%)
  Adverse reaction Influenza, Number of Patients (N) (%): 2 (3%) N (%)
  Adverse reaction Jaundice, Number of Patients (N) (%): 2 (3%) N (%)
  Adverse reaction Nasopharyngitis, Number of Patients (N) (%): 3 (4%) N (%)
  Adverse reaction Nervous system disorder, Number of Patients (N) (%): 2 (3%) N (%)
  Adverse reaction Pneumonia, Number of Patients (N) (%): 2 (3%) N (%)
  Adverse reaction Pyrexia, Number of Patients (N) (%): 7 (9%) N (%)
  Adverse reaction Rash, Number of Patients (N) (%): 2 (3%) N (%)
  Adverse reaction Somnolence, Number of Patients (N) (%): 2 (3%) N (%)
  Adverse reaction Tonsillitis, Number of Patients (N) (%): 4 (5%) N (%)
  Adverse reaction Transaminase increased, Number of Patients (N) (%): 2 (3%) N (%)
  Adverse reaction Vomiting, Number of Patients (N) (%): 6 (8%) N (%)
  Adverse reaction Weight decreased, Number of Patients (N) (%): 2 (3%) N (%)
[2]; IV administration over 20 minutes, healthy volunteers
  Plasma levels observed, up to: up to 26,500 ng/mL
[2]; IV doses in the range of 3.5 mg/kg to 7.5 mg/kg
  Dose dependence of AUCinf, AUClast and Cmax: increase linearly
[2]; IV over 20 minutes, stable across the doses evaluated
  Percent of dose excreted in urine: ~75%
[2]; Part A
  Concentration up to which linearity of PK was shown: up to 26.5 μg/mL
[2]; after IV administration
  Dose excreted in the urine as parent compound over 24 hours: 75 % of the dose
[2]; both sexes, human, iv, 3.5 mg/kg, IV over 20 minutes, 3.5 mg/kg, read-out: Renal Clearance (RCl), Mean
  CL renal: 4.33 mL/min/kg
[2]; both sexes, human, iv, 3.5 mg/kg, IV over 20 minutes, 3.5 mg/kg, read-out: Renal Clearance (RCl), Median
  CL renal: 4.17 mL/min/kg
[2]; both sexes, human, iv, 3.5 mg/kg, IV over 20 minutes, 3.5 mg/kg, read-out: Renal Clearance (RCl), Range
  CL renal: 3.33 to 5 mL/min/kg
[2]; both sexes, human, iv, 5 mg/kg, IV over 20 minutes, 5.0 mg/kg, read-out: Renal Clearance (RCl), Mean
  CL renal: 3.83 mL/min/kg
[2]; both sexes, human, iv, 5 mg/kg, IV over 20 minutes, 5.0 mg/kg, read-out: Renal Clearance (RCl), Median
  CL renal: 3.67 mL/min/kg
[2]; both sexes, human, iv, 5 mg/kg, IV over 20 minutes, 5.0 mg/kg, read-out: Renal Clearance (RCl), Range
  CL renal: 3.17 to 5.17 mL/min/kg
[2]; both sexes, human, iv, 7.5 mg/kg, IV over 20 minutes, 7.5 mg/kg, read-out: Renal Clearance (RCl), Mean
  CL renal: 4.33 mL/min/kg
[2]; both sexes, human, iv, 7.5 mg/kg, IV over 20 minutes, 7.5 mg/kg, read-out: Renal Clearance (RCl), Median
  CL renal: 4.17 mL/min/kg
[2]; both sexes, human, iv, 7.5 mg/kg, IV over 20 minutes, 7.5 mg/kg, read-out: Renal Clearance (RCl), Range
  CL renal: 3.5 to 5.33 mL/min/kg
[2]; both sexes, human, iv, IV over 20 minutes, stable across doses, read-out: Renal clearance (converted)
  CL renal: ~4.17 mL/min/kg
[2]; both sexes, human, iv, after IV administration, read-out: Renal clearance, median
  CL renal: 265 mL/min
[2]; both sexes, human, iv, after IV administration, read-out: Renal clearance, range
  CL renal: 183 to 467 mL/min
[2]; both sexes, human, plasma, iv, 3.5 mg/kg, IV over 20 minutes, 3.5 mg/kg, read-out: AUC24h, Mean
  AUC(0-t): 9850 ng·h/mL
[2]; both sexes, human, plasma, iv, 3.5 mg/kg, IV over 20 minutes, 3.5 mg/kg, read-out: AUC24h, Median
  AUC(0-t): 9690 ng·h/mL
[2]; both sexes, human, plasma, iv, 3.5 mg/kg, IV over 20 minutes, 3.5 mg/kg, read-out: AUC24h, Range
  AUC(0-t): 8990 to 11000 ng·h/mL
[2]; both sexes, human, plasma, iv, 3.5 mg/kg, IV over 20 minutes, 3.5 mg/kg, read-out: AUCinf, Mean
  AUC(0-inf): 11000 ng·h/mL
[2]; both sexes, human, plasma, iv, 3.5 mg/kg, IV over 20 minutes, 3.5 mg/kg, read-out: AUCinf, Median
  AUC(0-inf): 10900 ng·h/mL
[2]; both sexes, human, plasma, iv, 3.5 mg/kg, IV over 20 minutes, 3.5 mg/kg, read-out: AUCinf, Range
  AUC(0-inf): 9740 to 12500 ng·h/mL
[2]; both sexes, human, plasma, iv, 3.5 mg/kg, IV over 20 minutes, 3.5 mg/kg, read-out: AUClast-timepoint, Mean
  AUC(0-t): 10200 ng·h/mL
[2]; both sexes, human, plasma, iv, 3.5 mg/kg, IV over 20 minutes, 3.5 mg/kg, read-out: AUClast-timepoint, Median
  AUC(0-t): 10100 ng·h/mL
[2]; both sexes, human, plasma, iv, 3.5 mg/kg, IV over 20 minutes, 3.5 mg/kg, read-out: AUClast-timepoint, Range
  AUC(0-t): 8990 to 11500 ng·h/mL
[2]; both sexes, human, plasma, iv, 3.5 mg/kg, IV over 20 minutes, 3.5 mg/kg, read-out: Clearance (Cl), Mean
  clearance: 5.33 mL/min/kg
[2]; both sexes, human, plasma, iv, 3.5 mg/kg, IV over 20 minutes, 3.5 mg/kg, read-out: Clearance (Cl), Median
  clearance: 5.33 mL/min/kg
[2]; both sexes, human, plasma, iv, 3.5 mg/kg, IV over 20 minutes, 3.5 mg/kg, read-out: Clearance (Cl), Range
  clearance: 4.67 to 6 mL/min/kg
[2]; both sexes, human, plasma, iv, 3.5 mg/kg, IV over 20 minutes, 3.5 mg/kg, read-out: Cmax, Mean
  Cmax: 11400 ng/mL
[2]; both sexes, human, plasma, iv, 3.5 mg/kg, IV over 20 minutes, 3.5 mg/kg, read-out: Cmax, Median
  Cmax: 11400 ng/mL
[2]; both sexes, human, plasma, iv, 3.5 mg/kg, IV over 20 minutes, 3.5 mg/kg, read-out: Cmax, Range
  Cmax: 10700 to 12300 ng/mL
[2]; both sexes, human, plasma, iv, 3.5 mg/kg, IV over 20 minutes, 3.5 mg/kg, read-out: T1/2, Mean
  half-life: 20.6 h
